Laboratory results taken from BindingDB's records for doi:10.1016/j.bmcl.2007.08.004 (Pfizer, 2007).

Target: T1, 3-hydroxy-3-methylglutaryl-coenzyme A reductase (Rattus norvegicus, UniProt P51639)
T1 sequence (P51639 whole entry): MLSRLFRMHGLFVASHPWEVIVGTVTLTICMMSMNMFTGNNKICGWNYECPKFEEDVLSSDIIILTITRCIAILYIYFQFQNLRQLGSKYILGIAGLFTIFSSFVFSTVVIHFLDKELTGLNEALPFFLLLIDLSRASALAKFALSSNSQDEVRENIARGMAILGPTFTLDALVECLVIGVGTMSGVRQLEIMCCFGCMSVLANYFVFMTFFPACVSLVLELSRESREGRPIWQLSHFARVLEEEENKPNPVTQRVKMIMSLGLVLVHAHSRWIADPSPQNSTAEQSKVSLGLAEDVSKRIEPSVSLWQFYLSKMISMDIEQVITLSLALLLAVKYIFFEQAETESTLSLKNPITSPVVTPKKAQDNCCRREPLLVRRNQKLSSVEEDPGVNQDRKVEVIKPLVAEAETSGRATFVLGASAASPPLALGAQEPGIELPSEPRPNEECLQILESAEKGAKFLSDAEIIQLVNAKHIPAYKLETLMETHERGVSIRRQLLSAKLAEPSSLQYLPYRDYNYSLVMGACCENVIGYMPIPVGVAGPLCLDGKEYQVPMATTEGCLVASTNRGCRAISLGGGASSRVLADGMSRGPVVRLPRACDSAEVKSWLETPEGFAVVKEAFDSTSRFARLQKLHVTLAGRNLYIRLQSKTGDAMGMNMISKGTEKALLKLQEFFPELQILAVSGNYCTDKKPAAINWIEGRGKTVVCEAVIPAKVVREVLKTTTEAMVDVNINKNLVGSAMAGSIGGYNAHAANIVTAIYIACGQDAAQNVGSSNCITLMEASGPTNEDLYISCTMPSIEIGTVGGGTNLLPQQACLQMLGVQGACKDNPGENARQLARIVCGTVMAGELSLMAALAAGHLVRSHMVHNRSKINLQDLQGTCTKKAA
Assay: HMG-CoA Reductase In Vitro Assay
Text: Assay for HMG-CoA reductase was based on the conversion of isotopically labeled HMG-CoA to mevalonic acid using rat liver microsomes as enzyme source. The product, [14C]-mevalonic acid was lactonized and separated from excess substrate via an anion ion exchange resin column, and radioactivity was counted on a scintillation counter.

- IC50: 10 nM
SMILES: CC(C)c1c(C(=O)N2CCc3ccccc3C2)nn(-c2ccc(F)cc2)c1OC[C@@H](O)C[C@@H](O)CC(=O)O [(3R,5S)-6-{[1-(4-fluorophenyl)-4-(propan-2-yl)-3-(1,2,3,4-tetrahydroisoquinolin-2-ylcarbonyl)-1H-pyrazol-5-yl]oxy}-3,5-dihydroxyhexanoic acid]
